Data reported in PubChem BioAssay AID850 (SRMLSC, 2007).
The source made the active and inactive calls. No rule for the calls is given here.

Columns and labels:
[1] = concentration-response yeast growth inhibition under permissive conditions, counter-assay for yeast lifespan-shortening chemical project (AID 850); conditions: Saccharomyces cerevisiae growth inhibition, permissive control, measured here: maximum growth inhibition, stronger effect = higher value;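 also: growth read as optical density after one day of incubation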
[2] = tested on: Saccharomyces cerevisiae growth inhibition, permissive control; experiment: as above

Structure (SMILES)	inhibition ([1]; at 50 µM) [%]	IC50 [2]	further results
Cc1cc(O)c(/C=N/Nc2ccccc2Cl)c(=O)o1	95.1	22.3 µM	
CC(C)(C)n1nc(-c2ccc(Cl)cc2)c2c(N)ncnc21	80.7	1.1 µM	
CN1CCN(CC(=O)N2CCn3c4c(c5cc(C6CCCCC6)ccc53)CCCC42)CC1 (stereo not drawn)		> 100 µM (inactive)	inhibition ([1]; at 1.563 µM): 6.73%
CCCn1c(Nc2nc3ccccc3n2C)nc2ccccc21	97.9	45.1 µM	
CCCCCCCCCCn1c2c(c(=N)c3c1CCC3)CCC2	100	12 µM	
O=C(CC(=O)c1cc(Cl)ccc1O)c1ccccc1		> 100 µM (inactive)	inhibition ([1]; at 12.5 µM): 24.9%
CC(=O)O/N=C/c1c(N2CCOCC2)n(C)c2ccccc12	96.5	17.5 µM	
CC1=C(C)/C(=N\OS(=O)(=O)c2ccccc2)C=CC1=O	99	6.14 µM	
CCCCCC/C(=N/O)c1ccccn1	99.6	9.77 µM	
COc1ccc(C(=O)NC(=S)NNC(=O)c2cnccn2)cc1OC		46.5 µM	inhibition ([1]; at 25 µM): 47.1%
CCC1CCCCN1C(=O)CSc1nnc(-c2ccc(OC)cc2)o1 (stereo not drawn)		> 100 µM (inactive)	inhibition ([1]; at 12.5 µM): 24.1%
CCCCCCCCCCCCCCCC(O)C(N)CO (stereo not drawn)	99.2	24.8 µM	
C/C(=N\Nc1ccc(Cl)cc1)c1ccccn1	97.1	10.1 µM	
O=C(O)c1ccc(N(c2ccccc2)c2ccccc2)cc1		> 100 µM (inactive)	inhibition ([1]; at 0.195 µM): 10.2%
Cc1csc(NC(=O)Cc2coc3cc(C)c(C(C)C)cc23)n1		> 100 µM (inactive)	inhibition ([1]; at 3.125 µM): 10.1%
COc1ccc(CN2CN(C(C)C)CSC2=S)cc1	26.3	> 100 µM (inactive)	
Cc1ccc(-c2nn3c(C)nnc3s2)cc1NC(=O)c1ccc(OC(C)C)cc1		> 100 µM (inactive)	inhibition ([1]; at 0.098 µM): 17.3%
Cc1cc(C)nc(N/N=C/C2=C(N3CCOCC3)C(=C\c3ccc(Cl)cc3)/CC2)n1		> 100 µM (inactive)	inhibition ([1]; at 3.125 µM): 5.26%
Cc1ccc(C(=O)O/N=C/c2c(N3CCOCC3)n(C)c3ccccc23)cc1		> 100 µM (inactive)	inhibition ([1]; at 6.25 µM): 18.7%
CCCCCCN1N=C(C)C(C(=O)c2ccc(Cl)cc2)C1=O (stereo not drawn)	75	24.5 µM	
CCOc1ccc(/C=C/C(=O)c2cc(Br)ccc(=O)c2O)cc1	89.6	16.7 µM	
Cc1ccc(-n2c(Cl)c(Cl)nc(Cl)c2=O)cc1	102	14 µM	

Structure (SMILES)	inhibition ([1]; at 50 µM) [%]	IC50 [2]	further results
CCCCn1c(/N=C/c2c[nH]c3ccccc23)nc2ccccc21		> 100 µM (inactive)	inhibition ([1]; at 0.781 µM): 7.75%
CC(C)(C)c1cc(C(c2cccnc2)N2CCN(CCO)CC2)cc(C(C)(C)C)c1O (stereo not drawn)	53.3	48.7 µM	
Clc1ccc(N/N=C/c2ccncc2)cc1Cl	21.4	> 100 µM (inactive)	
Cc1ccc(/C(N)=N/OC(=O)c2ccc(C)cc2Cl)cc1	98.4	8.59 µM	
Oc1c(I)cc(Cl)c2cccnc12	98	16.7 µM	
Cc1ccc(S(=O)(=O)Nc2ccc(SC(F)F)cc2)c(C)c1		> 100 µM (inactive)	inhibition ([1]; at 0.781 µM): 21.4%
O=C(c1ccccc1)c1ccc2nc(N3CCCCC3)c3nncn3c2c1		> 100 µM (inactive)	inhibition ([1]; at 0.195 µM): 14.9%
O=C1c2ccccc2NC(c2ccc(-c3ccc(Br)cc3)o2)N1O (stereo not drawn)	99	18.9 µM	
CCCCCCCCCCCCCCCC[n+]1cccc2ccccc21	100	0.701 µM	
O=C(O)c1ccc(SCc2cnc(Cl)s2)cc1	99.2	4.91 µM	
COc1ccccc1C(=O)NNC(=S)NC(=O)c1ccco1	29.3	> 100 µM (inactive)	
c1ccc(-n2c(-c3ccco3)nnc2-c2ccco2)cc1		> 100 µM (inactive)	inhibition ([1]; at 12.5 µM): 22.7%
O=C1OCC(CO)(CO)N=C1NNc1ccc(Cl)c(Cl)c1	98.6	1.6 µM	
O=C1C2C3C=CC(CO)(O3)C2C(=O)N1c1ccccc1-c1ccccc1 (stereo not drawn)		> 100 µM (inactive)	inhibition ([1]; at 6.25 µM): 19.9%
CCCCCCCCCCCCCCCC[n+]1ccc(C(N)=O)cc1		0.545 µM	inhibition ([1]; at 25 µM): 100%
CCCCCCCCC/C(=N\O)c1ccccn1	101	5.48 µM	
Cc1cccc(C(=O)CC(=O)c2cc(Cl)ccc2O)c1	52.9	35.8 µM	
CCC(C)NC(=O)CS(=O)Cc1nc(-c2ccccc2C)oc1C (stereo not drawn)		> 100 µM (inactive)	inhibition ([1]; at 1.563 µM): 23.5%
COc1ccc(Nc2cnn(-c3nc4ccccc4s3)c(=O)c2Cl)cc1	60.8	44.2 µM	
O=[N+]([O-])c1ccc(N/N=C/c2ccc[nH]2)cc1	5.41	> 100 µM (inactive)	
CCCCS(=O)(=O)/C=C\C=C/S(=O)(=O)CCCC		> 100 µM (inactive)	inhibition ([1]; at 6.25 µM): 21.2%
Oc1c(Cl)cc(Cl)c(Cl)c1Cc1c(O)c(Cl)cc(Cl)c1Cl		> 100 µM (inactive)	inhibition ([1]; at 6.25 µM): 23.3%

Structure (SMILES)	inhibition ([1]; at 50 µM) [%]	IC50 [2]	further results
Cc1noc2ncnc(Sc3ccccc3Cl)c12	69	39.5 µM	
NC(=O)c1sc2nc(-c3ccco3)ccc2c1N		> 100 µM (inactive)	inhibition ([1]; at 1.563 µM): 8.46%
c1ccc2c(c1)C(=Nn1cnnc1)c1ccccc1-2		> 100 µM (inactive)	inhibition ([1]; at 0.391 µM): 7.85%
Cc1ccc(C)c(/C=C/C(=O)c2ccccc(=O)c2O)c1		6.38 µM	inhibition ([1]; at 25 µM): 100%
Cc1ccc(-c2nnc3ccc(SC(C)C(=O)O)nn23)cc1 (stereo not drawn)		> 100 µM (inactive)	inhibition ([1]; at 6.25 µM): 10.5%
CCCCC(=O)NNC(=S)NC(=O)CCC	75.2	29.7 µM	
O=C(Nc1cccc(N=Cc2cc(Cl)cc(Br)c2O)c1)c1ccco1	89.6	25.8 µM	
CN1CSC(=S)N(C)C1	97	12.6 µM	
CCOc1ccccc1C1CC(c2ccc(Br)cc2)Nc2nc(N)nn21 (stereo not drawn)		> 100 µM (inactive)	inhibition ([1]; at 0.781 µM): 10.2%
O=C(Nc1nnc(C2CC2)s1)c1ccccn1	22.8	> 100 µM (inactive)	
Cc1cc(-c2n[nH]c(=S)n2/N=C/c2cc([N+](=O)[O-])ccc2Cl)n[nH]1		> 100 µM (inactive)	inhibition ([1]; at 0.781 µM): -1.78%
CCc1ccc2c(c1)C1(NN=C(c3ccc(C)cc3)S1)C(=O)N2 (stereo not drawn)	98	21.3 µM	
COc1ccc(C(=O)C(C)(C)NO)cc1	50.7	46.8 µM	
Cc1cc(/C=N/n2cnnc2)c(C)n1-c1ccc(OCc2ccc(Cl)cc2Cl)cc1		> 100 µM (inactive)	inhibition ([1]; at 25 µM): 25.7%
O=c1oc2ccccc2c(O)c1/C=C1\C=Nc2ccccc21	93.2	5.05 µM	
O=C(Cc1ccccc1)NCCc1cn2ccsc2n1		> 100 µM (inactive)	inhibition ([1]; at 0.391 µM): 26%
CCOC(=O)c1c(N)sc2c(OC)c(Br)ccc12		> 100 µM (inactive)	inhibition ([1]; at 3.125 µM): 24.4%
O=C(Oc1c(Cl)cc(Cl)c2cccnc12)c1cccc([N+](=O)[O-])c1		1.44 µM	inhibition ([1]; at 12.5 µM): 99.4%
Cc1[nH]n(-c2ccccc2)c(=O)c1/C=N/N1C(=O)c2ccc3c4c(ccc(c24)C1=O)CC3		> 100 µM (inactive)	inhibition ([1]; at 0.781 µM): 8.51%
CCOc1ccc(N/N=C(/C#N)C(N)=O)cc1	87.7	11 µM	
